Consider eight compounds from the SangsterLogP compilation.

A short description of the data set: method code SF-AS, from DOI: 10.1111/j.2042-7158.1993.tb07096.x, PMID: 7901370. To be noted: pH 7.4.

For the compound `O=S(=O)(NC(=S)N1CCCCC1)c1cnccc1NC1CCCCCCC1`, the logD (as a rule, the decadic logarithm of the distribution of all forms, ionised or not, between an organic phase and buffer at a given pH) came out at 1.6. In the case of `O=S(=O)(NC(=S)N1CCCCC1)c1cnccc1NC1CCCCC1` it was 0.85; in that of `CC(C)NC(=S)NS(=O)(=O)c1cnccc1NC1CCCCCCC1`, 1.3. In the case of `O=S(=O)(NC(=S)N1CCCCC1)c1cnccc1NC1CCCCCC1` it was 1.25; in that of `CCNC(=S)NS(=O)(=O)c1cnccc1NC1CCCCCCC1`, 0.96; in that of `O=S(=O)(NC(=S)NC1CCCCC1)c1cnccc1NC1CCCCCCC1`, 2.14.

`CCNC(=S)NS(=O)(=O)c1cnccc1NC1CCCCC1`: the pH-dependent lipophilicity (logD) amounted to 0.2. Compound `O=S(=O)(NC(=S)NC1CCCCC1)c1cnccc1NC1CCCCCC1` gave a logD of 1.81.
